Values quoted from earlier work in patent US20220000966A1, “COMPOSITION AND METHOD FOR TREATING THE LUNGS” (priority 2018, published 2022).
Like-named read-outs stand apart in the source and are kept apart here.

Columns and labels:
leukemia K562 cells = conditions: in vitro and ex vivo
[1] = system: airway inflammation in asthma; conditions: in vivo
[2] = system: primary human bronchial epithelial cells; conditions: cigarette smoke extract, pretreatment
Guinea pigs = conditions: pretreatment
rats = conditions: 50 mg/kg orally each day, smoke 1 hr/day for 56 days
TRPA1 [3] = target: T1, TRPA1 (Homo sapiens, UniProt O75762)
T1 sequence (O75762 whole entry): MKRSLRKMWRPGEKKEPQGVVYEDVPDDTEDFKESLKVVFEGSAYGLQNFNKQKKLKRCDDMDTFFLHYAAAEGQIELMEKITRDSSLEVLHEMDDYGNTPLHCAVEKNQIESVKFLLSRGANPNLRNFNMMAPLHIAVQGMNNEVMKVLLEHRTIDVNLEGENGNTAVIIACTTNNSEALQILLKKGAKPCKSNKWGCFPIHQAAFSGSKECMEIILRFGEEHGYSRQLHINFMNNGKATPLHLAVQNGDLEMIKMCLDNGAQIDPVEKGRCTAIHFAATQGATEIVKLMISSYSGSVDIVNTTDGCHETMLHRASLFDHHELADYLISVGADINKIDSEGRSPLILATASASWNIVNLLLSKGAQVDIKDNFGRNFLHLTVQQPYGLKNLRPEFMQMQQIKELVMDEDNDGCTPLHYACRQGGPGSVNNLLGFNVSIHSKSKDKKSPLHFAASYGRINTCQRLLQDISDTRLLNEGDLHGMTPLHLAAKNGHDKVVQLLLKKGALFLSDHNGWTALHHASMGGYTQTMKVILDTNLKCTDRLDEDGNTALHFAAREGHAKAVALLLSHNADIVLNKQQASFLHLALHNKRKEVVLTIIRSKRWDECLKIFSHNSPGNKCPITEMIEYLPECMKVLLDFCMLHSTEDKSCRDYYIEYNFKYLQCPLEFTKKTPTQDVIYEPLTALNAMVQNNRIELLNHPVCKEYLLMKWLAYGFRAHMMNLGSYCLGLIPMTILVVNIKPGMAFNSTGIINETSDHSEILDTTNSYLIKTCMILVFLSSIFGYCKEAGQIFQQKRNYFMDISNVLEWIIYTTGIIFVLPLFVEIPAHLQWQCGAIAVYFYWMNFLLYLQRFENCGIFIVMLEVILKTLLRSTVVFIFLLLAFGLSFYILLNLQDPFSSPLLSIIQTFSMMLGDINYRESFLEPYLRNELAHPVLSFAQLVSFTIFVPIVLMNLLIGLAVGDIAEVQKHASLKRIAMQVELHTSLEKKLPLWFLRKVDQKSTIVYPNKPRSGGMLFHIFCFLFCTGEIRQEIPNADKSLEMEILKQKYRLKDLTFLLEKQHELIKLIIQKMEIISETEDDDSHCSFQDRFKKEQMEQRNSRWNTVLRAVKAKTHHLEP

human TRPM8 (hTRPM8) = human TRPM8 (hTRPM8) (Homo sapiens, UniProt Q7Z2W7)
Sequence of human TRPM8 (hTRPM8) (Q7Z2W7 whole entry): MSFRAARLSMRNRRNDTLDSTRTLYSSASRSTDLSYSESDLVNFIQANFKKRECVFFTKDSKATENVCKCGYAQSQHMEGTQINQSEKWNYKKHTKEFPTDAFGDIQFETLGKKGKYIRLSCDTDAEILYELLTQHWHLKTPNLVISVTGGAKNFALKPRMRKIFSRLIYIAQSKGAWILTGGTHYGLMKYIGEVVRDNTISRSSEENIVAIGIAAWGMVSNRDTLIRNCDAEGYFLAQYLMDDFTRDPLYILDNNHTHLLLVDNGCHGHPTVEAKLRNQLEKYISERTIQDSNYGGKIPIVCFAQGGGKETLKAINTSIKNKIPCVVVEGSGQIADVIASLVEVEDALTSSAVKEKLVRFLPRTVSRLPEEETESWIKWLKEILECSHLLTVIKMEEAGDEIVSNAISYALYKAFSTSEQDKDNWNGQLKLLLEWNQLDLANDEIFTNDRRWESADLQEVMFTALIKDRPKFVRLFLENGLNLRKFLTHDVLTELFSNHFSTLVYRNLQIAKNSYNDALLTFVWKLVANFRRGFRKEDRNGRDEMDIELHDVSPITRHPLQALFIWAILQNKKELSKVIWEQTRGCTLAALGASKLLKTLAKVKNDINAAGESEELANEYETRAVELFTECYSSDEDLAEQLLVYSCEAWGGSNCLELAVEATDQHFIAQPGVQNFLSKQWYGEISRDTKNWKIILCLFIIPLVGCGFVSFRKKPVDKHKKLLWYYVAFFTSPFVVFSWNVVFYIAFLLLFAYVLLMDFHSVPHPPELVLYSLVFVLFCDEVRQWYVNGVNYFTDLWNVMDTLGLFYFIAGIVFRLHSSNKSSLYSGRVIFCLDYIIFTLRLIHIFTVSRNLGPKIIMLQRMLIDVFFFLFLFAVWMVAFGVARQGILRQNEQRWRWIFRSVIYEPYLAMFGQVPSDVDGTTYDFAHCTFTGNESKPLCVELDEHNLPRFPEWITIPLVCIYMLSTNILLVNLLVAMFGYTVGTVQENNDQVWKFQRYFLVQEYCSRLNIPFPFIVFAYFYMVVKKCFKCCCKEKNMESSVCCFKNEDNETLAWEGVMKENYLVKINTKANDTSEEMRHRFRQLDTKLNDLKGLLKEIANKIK

mice = conditions: injection
TRPA1 [4] = target: T1, TRPA1; remark: listed apart in the source
human subjects = conditions: octanol on the neck of human subjects followed by 1,8-cineole
[5] = system: patients with steroid-dependent bronchial asthma
[6] = system: patients with reversible obstructive ventilatory disorders
lymphocytes = conditions: 1.5 μg/mL
[7] = orally 600 mg/day, COPD patients
[8] = system: particulate air pollution-induced inflammation; conditions: in vivo
[9] = system: human lung epithelial cells (A-549), fibroblasts (HFL1), and lymphoma cells (U-937)
patients = conditions: inhaled
[10] = oral administration, healthy subjects
human MonoMac6 cells = conditions: cells pretreated
[11] = patients with bronchial asthma, day 4, 1,8-cineole capsules 200 mg 3 times/day
[12] = 200 mg orally 3 times per day for 12 weeks

CCNC(=O)CC[C@H](N)C(=O)O [L-theanine]
growth of leukemia K562 cells (leukemia K562 cells): significantly suppressed | inflammatory cells in bronchoalveolar lavage fluid (BALF) [1]: dramatically attenuated | production of IgE, MCP-1, IL-4, IL-5, IL-13, TNF-α and INF-γ in BALF [1]: significantly decreased | migration and invasion of A549 cells (human lung cancer A549): significantly inhibited | growth of human lung cancer A549 cells (human lung cancer A549; in vitro and ex vivo): significantly suppressed

CC(C)c1ccc(NC(=O)Cn2cnc3c2c(=O)n(C)c(=O)n3C)cc1 [HC-030031]
Ca^2+ influx [2]: decrease in Ca^2+ influx was similar

epigallocatechin-3-gallate
TNF-α level (Guinea pigs): significantly reduced | bronchoalveolar lavage fluid Leukotriene B4 (LTB4) levels (Guinea pigs): significantly reduced | glutathione peroxidase activity (Guinea pigs): increase | myeloperoxidase in lung tissue homogenate (Guinea pigs): significantly reduced | neutrophil elastase (NE) level (Guinea pigs): significantly reduced | superoxide dismutase activity (Guinea pigs): not significantly affected | cigarette smoke-induced oxidative stress, neutrophilic inflammation, airway mucus production and collagen deposition (rats): ameliorated

CC1CCC(C(C)C)C(O)C1 (centres unmarked) [menthol, reference compound]
TRPA1 activation (TRPA1 [3]): activated | TRPM8 activation (human TRPM8 (hTRPM8)): activation

CC1=CC(=O)C(C(C)C)=CC1=O [thymoquinone]
TNF-α level (Guinea pigs): significantly reduced | bronchoalveolar lavage fluid Leukotriene B4 (LTB4) levels (Guinea pigs): did not significantly change | malondialdehyde level (Guinea pigs): significantly reduced | neutrophil elastase (NE) level (Guinea pigs): significantly reduced | chronic inflammatory changes (mice): reduction

C=C1CC/C=C(\C)CC[C@@H]2[C@@H]1CC2(C)C [BCP, β-caryophyllene]
action on TRPA1 (TRPA1 [4]): agonist

CC12CCC(CC1)C(C)(C)O2 [1,8-cineole]
action on hTRPA1 (TRPA1 [3]): antagonist | change of LTB4 production from monocytes ex vivo (blood monocytes; healthy volunteers, day 4): −57.9% | change of PGE2 production from monocytes ex vivo (blood monocytes; healthy volunteers, day 4): −42.7% | change of LTB4 production from monocytes ex vivo (blood monocytes; [11]): −40.3% | change of PGE2 production from monocytes ex vivo (blood monocytes; [11]): −31.3% | irritation of octanol (human subjects): significantly reduced | reduction in daily prednisolone dosage tolerated [5, 12]: 36% | reduction in daily prednisolone dosage, mean [5, 12]: 3.75 mg | patients who achieved a reduction of oral steroids ([5]; 1,8-cineole group): Twelve of 16 | change of airway resistance ([6]; treatment duration of eight weeks): −21% | change of airway resistance ([6]; treatment duration of one week): −23% | inhibition of production of TNF-α, IL-1β, LTB4 and TXB2 (monocytes): dose-dependent and highly significant inhibition | TRPM8 activation (human TRPM8 (hTRPM8)): activates | inhibition of IL-1β production in lymphocytes (lymphocytes): 84%

CC(=O)N[C@@H](CS)C(=O)O [N-acetyl cysteine]
sputum eosinophil cationic protein concentrations and adhesion of polymorphonuclear leukocytes [7]: reduced | Ca^2+ influx [2]: prevented | particulate air pollution-induced inflammation [8]: effectively prevented

COc1cc(O)cc(O)c1C(=O)/C=C/c1ccccc1 [cardamonin]
cardiomyocyte constriction (cardiomyocyte): nor did it impair

COc1ccc2cc3[n+](cc2c1OC)CCc1cc2c(cc1-3)OCO2 [berberine]
inhibition of inflammatory agents-induced cytokine production [9]: dose-dependent and cell type-independent

N[C@@H](CCC(=O)N[C@@H](CS)C(=O)NCC(=O)O)C(=O)O [glutathione, γ-L-glutamyl-L-cysteinyl-glycine]
FEV1 change from baseline (patients): −19% | induced breathlessness (patients): three | induced cough (patients): four | total pulmonary resistance change from baseline (patients): +61% | increase of plasma glutathione levels [10]: ineffective | period for which epithelial lung fluid glutathione remained elevated (aerosol nebulizer): 2 h | glutathione epithelial lung fluid concentration (aerosol nebulizer, 4 mL of 150 mg/mL over 25 minutes): about 337 μM | glutathione concentration increase in epithelial lung fluid (intravenously administered 600 mg): no measurable glutathione concentration increases | cigarette smoke-induced reduction in HDAC levels (human MonoMac6 cells): reversed | IL-8 release (human MonoMac6 cells; cigarette smoke extract): significantly inhibited
